Test results from PMC3397457, “Preclinical Evaluation of Anticancer Efficacy and Pharmacological Properties of FBA-TPQ, a Novel Synthetic Makaluvamine Analog” (Marine Drugs, 2012).

Legend:
Panc-1 cells = test: Annexin V apoptosis assay/flow cytometry, Panc-1; format: cell-based, human; conditions: Panc-1, 1 µM, 48 h
Procedure: The apoptotic cells were detected using a method reported previously. […] In HPAC cells, a 1 µM concentration of FBA-TPQ increased the apoptotic index two-fold higher than that seen in control cells (P < 0.01). […] In the Mia PaCa-2 cells, FBA-TPQ at 1 µM led to a three-fold increase in apoptosis (P < 0.01).
Following a similar protocol as above, cells in early and late stages of apoptosis were detected using an Annexin V-FITC apoptosis detection kit from BioVision (Mountain View, CA, USA), according to the manufacturer’s protocol. For apoptosis experiments, 2–3 × 10^5 cells were exposed to the test compound (0, 0.1, 0.5 and 1.0 µM) and incubated for 48 h prior to analysis. Cells were collected and washed with serum-free media. Cells were then re-suspended in 500 µL of Annexin V binding buffer followed by addition of 5 µL of Annexin V-FITC and 5 µL of propidium iodide (PI). The samples were incubated in the dark for 5 min at room temperature and analyzed with a Becton Dickinson FACSCalibur instrument (Ex = 488 nm; Em = 530 nm). Cells that were positive for Annexin V-FITC alone (early apoptosis) and Annexin V-FITC and PI (late apoptosis) were counted. The apoptotic index was calculated against the untreated control cells.

HPAC cells = test: Cell cycle distribution by flow cytometry, HPAC; format: cell-based, human; conditions: 1 µM
Procedure: The effects of FBA-TPQ on cell cycle distribution were analyzed using the previously reported methods; its effects appeared to be cell-line-dependent (Figure 2c). […] The differences in the responses of the different cell lines may be related to their expression of p53.
To determine the effect of FBA-TPQ on the cell cycle, cells (2–3 × 10^5) were exposed to the test compounds (0, 0.1, 0.5 or 1 µM) and incubated for 24 h prior to analysis. Cells were trypsinized, washed with PBS, and fixed in 1.5 mL of 95% ethanol and 0.5 mL of 0.9% saline solution at 4 °C overnight, followed by incubation with RNAse and staining with propidium iodide (Sigma). The DNA content was determined by flow cytometry. The cell cycle distribution was evaluated by comparing with that of the control cells.

Question: Which “increase in apoptosis vs control cells” value (Panc-1 cells) does the source give for `O=C1C(NCc2ccc(F)cc2)=CC2=NCCc3c[nH]c1c32` [FBA-TPQ, 7-(4-fluorobenzylamino)-1,3,4,8-tetrahydropyrrolo[4,3,2-de]quinolin-8(1H)-one] here?
Answer: four-fold

Question: And the cell cycle arrest (HPAC cells)?
Answer: arrest in the G2/M phase
